Legend:
wild-type FKBP12 = wild-type FKBP12 (Homo sapiens, UniProt P62942); conditions: refs (32, 36); cited from earlier work
[1] = test system: mutated Cre gene with 2-bp micro-deletion / GFP expression in HEK293T cells; experiment: Inducible prime editing repair of micro-deleted Cre, GFP reporter; type: cell-based, human; conditions: 100 nM dTAG-13, FIGS. 3F and 18
Protocol: Fluorescence assay using flow cytometry analysis. Cells were treated with 0.05% Trpsin EDTA (Thermo Fisher Scientific no. 25300054) or TrypLE (Thermo Fisher Scientific no. 12605028) after transfection and centrifuged at 3000 g for 5 min. Supernatant was removed and the cell pellet was resuspended with 200 μL phosphate buffered saline (PBS) without calcium and magnesium (Thermo Fisher Scientific no. 10010023). Cells were transferred into 12×75 mm flow tubes (Global Scientific no. 110410). Cells were analyzed by MA900 flow cytometry (SONY). 405 nm laser (FL6 filter) was used for testing the BFP channel. 488 nm (FL1 filter) was used for testing the EYFP and GFP channel. Automated alignment using Automatic Setup Beads kit (SONY no. LE-B3001) is performed before running samples. In FIGS. 3A, 3B, and 17, experiments were performed under 2% FSC, 17% BSC, 24% FL1. […] Flow cytometry data was processed and analyzed by FlowJo 10. […] The mean intensity of the reporter fluorescent protein (BFP and EYFP) in viable and single cell populations were calculated by FlowJo 10 as the mean of FL6-A and FL1-A. When calculating the fold change of relative fluorescence units (RFU), the relative fluorescence units of EYFP was calculated by dividing the mean of fluorescence intensity of EYFP with the mean of BFP fluorescence intensity for normalization as the following formula: […]

[2] = test system: Cre-mediated GFP expression in HEK293T cells; experiment: Inducible Cre site-specific DNA recombination, LoxP-STOP-LoxP-GFP reporter; type: cell-based, human
Protocol: Fluorescence assay using flow cytometry analysis. Cells were treated with 0.05% Trpsin EDTA (Thermo Fisher Scientific no. 25300054) or TrypLE (Thermo Fisher Scientific no. 12605028) after transfection and centrifuged at 3000 g for 5 min. Supernatant was removed and the cell pellet was resuspended with 200 μL phosphate buffered saline (PBS) without calcium and magnesium (Thermo Fisher Scientific no. 10010023). Cells were transferred into 12×75 mm flow tubes (Global Scientific no. 110410). Cells were analyzed by MA900 flow cytometry (SONY). 405 nm laser (FL6 filter) was used for testing the BFP channel. 488 nm (FL1 filter) was used for testing the EYFP and GFP channel. Automated alignment using Automatic Setup Beads kit (SONY no. LE-B3001) is performed before running samples. In FIGS. 3A, 3B, and 17, experiments were performed under 2% FSC, 17% BSC, 24% FL1. In FIG. 18, experiments were performed under 2% FSC, 17% BSC, 27% FL1. All the other experiments were performed under 2% FSC, 17% BSC, 24% FL1 and 27% FL6. Flow cytometry data was processed and analyzed by FlowJo 10. Events were first gated with forward scatter-Area (FSC-A) and side scatter-Area (SSC-A) to select viable cells and remove the debris and dead cells. Cells were further gated with FSC-A and FSC-Height (FSC-H) for selecting single cells. The mean intensity of the reporter fluorescent protein (BFP and EYFP) in viable and single cell populations were calculated by FlowJo 10 as the mean of FL6-A and FL1-A. When calculating the fold change of relative fluorescence units (RFU), the relative fluorescence units of EYFP was calculated by dividing the mean of fluorescence intensity of EYFP with the mean of BFP fluorescence intensity for normalization as the following formula: […]
Transfection and microscopy. […]

wild-type FKBP12, sequence (P62942 whole entry, species assumed): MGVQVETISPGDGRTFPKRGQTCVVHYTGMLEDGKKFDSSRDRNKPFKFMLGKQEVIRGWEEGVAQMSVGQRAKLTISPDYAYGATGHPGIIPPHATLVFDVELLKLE

**Q.** With `CC[C@H](C(=O)N1CCCC[C@H]1C(=O)O[C@H](CCc1ccc(OC)c(OC)c1)c1ccccc1OCC(=O)NCCCCCCOc1cccc2c1C(=O)N(C1CCC(=O)NC1=O)C2=O)c1cc(OC)c(OC)c(OC)c1` (stereo partly shown) [dTAG-13] as the molecule, how does the “degradation of wild-type FKBP12” value (wild-type FKBP12) read?
**A.** do not degrade wild-type FKBP12

**Q.** And the “increase in GFP expression (prime editing repair of micro-deleted Cre)” value [1]?
**A.** more than 25 fold

**Q.** What about the “GFP signal, two-layer genetic circuit driving Cre” value ([2]; 100 nM dTAG-13 or 1 μM dBRD9, 2 days, FIGS. 3A and 17) of the same molecule?
**A.** strong GFP signal

**Q.** And the “GFP expression, three-layer circuit (Dre, Rox-STOP-Rox-Cre)” value ([2]; FIG. 3B)?
**A.** robust GFP expression only in the presence of dTAG-13
